One data set can be described thus: Solubility in H2O. It counts as physicochemical. The settings on record: water.
The target of a further data set is T1, human HDAC2 (Homo sapiens, UniProt Q92769).
T1 construct: purchased Reaction Biology Corporation HDAC2
Description: Fluorescence HDAC enzyme inhibition assay (Reaction Biology Corporation). It counts as biochemical. On the procedure:
(§1) The IC50 values for the various inhibitors against the isoenzymes of HDAC were measured by Reaction Biology Corporation (Malvern, Pa., USA) (Buffer, Kalin et al. 2010): For the enzyme inhibition assay, human recombinant protein material was used (human HDAC2 (CAT #: HDAC2), human HDAC6 (CAT #: HDAC6) or human HDAC8 (CAT #: HDAC8)). A 10-point dose response curve was prepared using a 3-fold dilution series (1:3), started at a concentration of 1 μM in DMSO for the synthesized drugs and 10 μM in DMSO for the reference substance Trichostatin A231 (TSA, for HDAC 2, 6 and 8). Reaction time was 90 minutes at 37° C. in a volume of 50 μL in a 96 well plate. Reaction buffer: 50 mM Tris-HCl, pH=8.0, 137 mM NaCl, 2.7 mM KCl, and 1 mM MgCl2 freshly added: 1 mg/ml bovine serum albumin. The fluorescence was measured using a fluoroscope Ascent™ FL fluorometer. The percent enzyme activity was calculated relative to the DMSO control. IC50 values were calculated using GraphPad Prism (GraphPad Prism 4.0 Software, San Diego, USA) based on a sigmoidal dose-response equation.
(§2) HDAC enzyme inhibition assays were conducted by Reaction Biology Corporation (Malvern, Pa., USA) using a ten point dose response curve with half-log serial dilutions, fluorogenic peptides at 50 μM as enzymatic substrates. Substrate for HDAC 2 and 6: fluorogenic peptide from p53 residues 379-382 (RHKK(Ac)AMC). Substrate for HDAC-8: fluorogenic peptide from p53 residues 379-382 (RHK(Ac)K(Ac)AMC).

The target of another data set is T2, human HDAC6 (Homo sapiens, UniProt Q9UBN7).
T2 construct: purchased Reaction Biology Corporation HDAC6
T2 sequence (Q9UBN7 1-1215): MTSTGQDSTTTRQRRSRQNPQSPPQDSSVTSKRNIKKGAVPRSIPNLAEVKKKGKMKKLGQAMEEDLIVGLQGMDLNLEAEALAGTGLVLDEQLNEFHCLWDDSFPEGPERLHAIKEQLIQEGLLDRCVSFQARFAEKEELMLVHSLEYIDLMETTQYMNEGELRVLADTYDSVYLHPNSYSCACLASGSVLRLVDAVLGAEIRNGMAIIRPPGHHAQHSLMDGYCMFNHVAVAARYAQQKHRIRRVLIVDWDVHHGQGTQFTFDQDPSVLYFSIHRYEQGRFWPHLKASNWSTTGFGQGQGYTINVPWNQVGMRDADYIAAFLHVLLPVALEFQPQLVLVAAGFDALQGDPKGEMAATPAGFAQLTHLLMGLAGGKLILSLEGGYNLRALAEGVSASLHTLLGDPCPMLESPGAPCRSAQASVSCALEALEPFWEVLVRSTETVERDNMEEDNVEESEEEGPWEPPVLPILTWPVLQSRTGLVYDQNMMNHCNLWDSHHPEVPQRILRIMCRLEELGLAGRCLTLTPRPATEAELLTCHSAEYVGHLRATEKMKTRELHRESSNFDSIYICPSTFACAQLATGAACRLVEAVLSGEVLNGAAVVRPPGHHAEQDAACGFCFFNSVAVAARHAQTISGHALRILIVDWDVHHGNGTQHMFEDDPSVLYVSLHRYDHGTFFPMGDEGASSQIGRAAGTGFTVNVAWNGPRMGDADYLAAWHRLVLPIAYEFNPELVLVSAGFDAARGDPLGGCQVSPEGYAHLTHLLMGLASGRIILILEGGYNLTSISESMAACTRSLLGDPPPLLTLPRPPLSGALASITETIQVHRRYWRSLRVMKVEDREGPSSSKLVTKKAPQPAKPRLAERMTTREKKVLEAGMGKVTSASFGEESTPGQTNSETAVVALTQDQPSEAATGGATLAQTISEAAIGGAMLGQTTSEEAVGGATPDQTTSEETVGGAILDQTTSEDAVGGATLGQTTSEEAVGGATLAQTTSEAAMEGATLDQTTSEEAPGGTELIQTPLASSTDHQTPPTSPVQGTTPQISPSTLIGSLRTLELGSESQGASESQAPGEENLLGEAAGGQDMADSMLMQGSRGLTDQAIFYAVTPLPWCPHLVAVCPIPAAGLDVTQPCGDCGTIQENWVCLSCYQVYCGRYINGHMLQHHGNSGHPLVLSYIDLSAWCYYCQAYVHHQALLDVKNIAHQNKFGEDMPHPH
The data set is described as above. It counts as biochemical. The protocol:
as §1, §2

Another data set addresses T3, human HDAC8 (Homo sapiens, UniProt Q9BY41).
T3 construct: purchased Reaction Biology Corporation HDAC8
T3 sequence (Q9BY41 1-377): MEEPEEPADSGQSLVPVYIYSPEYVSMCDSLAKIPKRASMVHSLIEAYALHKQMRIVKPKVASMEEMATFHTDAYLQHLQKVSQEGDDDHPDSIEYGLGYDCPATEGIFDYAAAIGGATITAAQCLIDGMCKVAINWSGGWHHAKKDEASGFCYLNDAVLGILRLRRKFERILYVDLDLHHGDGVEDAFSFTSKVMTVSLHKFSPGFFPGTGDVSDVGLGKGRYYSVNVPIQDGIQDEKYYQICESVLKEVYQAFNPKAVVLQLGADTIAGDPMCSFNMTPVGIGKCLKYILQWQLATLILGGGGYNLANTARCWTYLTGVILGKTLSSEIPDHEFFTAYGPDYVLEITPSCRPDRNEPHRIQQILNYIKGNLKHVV
Described as above. It counts as biochemical. The protocol: as §1, §2

T1 sequence (Q92769 whole entry): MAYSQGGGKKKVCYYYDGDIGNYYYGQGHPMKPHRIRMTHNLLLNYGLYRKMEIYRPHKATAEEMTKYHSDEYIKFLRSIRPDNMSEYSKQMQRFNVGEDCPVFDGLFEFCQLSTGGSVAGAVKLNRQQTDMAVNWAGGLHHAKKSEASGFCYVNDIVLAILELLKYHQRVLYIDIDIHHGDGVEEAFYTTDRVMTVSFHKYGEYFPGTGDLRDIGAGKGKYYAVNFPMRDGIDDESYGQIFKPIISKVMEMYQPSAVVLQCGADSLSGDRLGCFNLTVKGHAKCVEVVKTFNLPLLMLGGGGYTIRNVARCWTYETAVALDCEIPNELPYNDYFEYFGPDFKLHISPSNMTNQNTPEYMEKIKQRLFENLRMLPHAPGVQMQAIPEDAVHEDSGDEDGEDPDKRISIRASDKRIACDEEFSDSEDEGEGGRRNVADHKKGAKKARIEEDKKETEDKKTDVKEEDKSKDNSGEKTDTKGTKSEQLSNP

In the case of `CN1C(=O)C2CN(Cc3c2c2ccccc2n3Cc2ccc(C(=O)NO)cc2)C1=O` (stereo not drawn), in the data set “Solubility in H2O”, the solubility was less than 1000 µg/mL.
On to `CN1C(=O)[C@@H]2CN(Cc3c2c2cc(OCCN4CCOCC4)ccc2n3Cc2ccc(C(=O)NO)cc2)C1=O` [(S)-21, N-Hydroxy-4-(((6S)-4-methyl-8-(2-morpholinoethoxy)-3,5-dioxo-3,4,5,6-tetrahydro-2,6-methano[1,3]diazocino[5,6-b]indole-11(1H)-yl)methyl)benzamide], for which the IC50 is 1800 nM on human HDAC2, 3.02 nM on human HDAC6 and 364 nM against human HDAC8.
As to `CN1C(=O)[C@H]2CN(Cc3c2c2cc(OCCN4CCOCC4)ccc2n3Cc2ccc(C(=O)NO)cc2)C1=O` [(R)-21, N-Hydroxy-4-(((6R)-4-methyl-8-(2-morpholinoethoxy)-3,5-dioxo-3,4,5,6-tetrahydro-2,6-methano[1,3]diazocino[5,6-b]indole-11(1B)-yl)methyl)benzamide], the IC50 at human HDAC2 was 13000 nM; at human HDAC6 it was 7.05 nM; against human HDAC8, 1970 nM.
For the compound `CN1CC(=O)N2CCc3c(c4ccccc4n3Cc3ccc(C(=O)NO)cc3)C2C1=O` (stereo not drawn) [Compound 31b, N-hydroxy-4-((2-methyl-1,4-dioxo-1,3,4,6,7,12c-hexahydropyrazino[1′,2′:1,2]pyrido[4,3-b]indol-8(2H)-yl)methyl)benzamide], the IC50 came to 16.4 ± 0.75 nM at human HDAC6 and 251 ± 32.5 nM against human HDAC8.
With `CN1C(=O)C2c3c(c4ccccc4n3Cc3ccc(C(=O)NO)cc3)CCN2C1=O` (stereo not drawn) [Compound 41, N-Hydroxy-4-((2-methyl-1,3-dioxo-2,3,5,6-tetrahydro-1H-imidazo[1′,5′:1,2]pyrido[3,4-b]indol-11(11bH)-yl)methyl)benzamide], the figures for the IC50 against human HDAC6 and on human HDAC8 were 30.7 ± 5.8 nM and 83 ± 6 nM, respectively.
`CN1C(=O)C2c3c(n(Cc4ccc(C(=O)NO)cc4)c4ccccc34)CCN2C1=O` (stereo not drawn) [Compound 31a, N-Hydroxy-4-((2-methyl-1,3-dioxo-2,3,5,6-tetrahydro-1H-imidazo[1′,5′:1,2]pyrido[4,3-b]indol-7(11cH)-yl)methyl)benzamide]: the melting point lay within 248.1 to 251.7 °C. The compound further yielded an IC50 against human HDAC6 of 8.99 ± 1.11 nM.
Consider `CN1C(=O)C2CN(Cc3c2c2cc(OCCN4CCOCC4)ccc2n3Cc2ccc(C(=O)NO)cc2)C1=O` (stereo not drawn) [Compound 21, 4-(2-((11-(4-(Hydroxycarbamoyl)benzyl)-4-methyl-3,5-dioxo-1,3,4,5,6,11-hexahydro-2,6-methano[1,3]diazocino[5,6-b]indol-8-yl)oxy)ethyl)morpholin-4-ium chloride], for which the 50% inhibitory concentration (IC50) at human HDAC6 was 2.41 ± 0.76 nM; on human HDAC8, 121 ± 10 nM.

The term solubility denotes the concentration that dissolves in the medium under given conditions. Lower therefore signals little dissolved substance. What is called IC50 is the concentration that gives 50% inhibition. A low value points to greater potency in that assay. The term melting point denotes the temperature of the solid-liquid transition.

The values are drawn from patent US11198694B2, “HDAC6 inhibitors, with improved solubility and their uses” (UNIVERSITÄT REGENSBURG, priority 2017, dated 2021).
